Data reported in patent publication US12077503B2, “Substituted cyclic amides and their use as herbicides” (FMC CORPORATION, priority 2015, dated 2024).
Like-named read-outs stand apart in the source and are kept apart here.

Legend:
Assay in all cases: Test A preemergence
Assay type in all cases: in vivo
[1] = tested on: pigweed (Amaranthus retroflexus); settings: Amaranthus retroflexus, pre-emergence, 240 h; for pest or weed control at 125 g/ha: 125 g ai/ha; for pest or weed control at 500 g/ha: 500 g ai/ha
[2] = tested on: giant foxtail (Setaria faberii); settings: Setaria faberi, pre-emergence, 240 h; for pest or weed control at 125 g/ha: 125 g ai/ha; for pest or weed control at 500 g/ha: 500 g ai/ha
Summary of the method: (§1)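 Greenhouse, ~10 d after spray; visual injury vs untreated controls, 0 = no effect, 100 = complete control. Preemergence: directed soil spray over planted seeds. Postemergence: plants 2–10 cm, 1–2 leaf stage. Loam/sand blend. Compound in non-phytotoxic solvent with surfactant.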

[3] = tested on: barnyardgrass (Echinochloa crus-galli); settings: Echinochloa crus-galli, pre-emergence, 240 h; for pest or weed control at 125 g/ha: 125 g ai/ha; for pest or weed control at 500 g/ha: 500 g ai/ha
Summary of the method: as §1

[4] = tested on: ragweed (common ragweed, Ambrosia elatior); settings: Ambrosia artemisiifolia, pre-emergence, 240 h; for pest or weed control at 125 g/ha: 125 g ai/ha; for pest or weed control at 500 g/ha: 500 g ai/ha
Summary of the method: as §1

[5] = tested on: ryegrass, Italian (Italian ryegrass, Lolium multiflorum); settings: Lolium multiflorum, pre-emergence, 240 h; for pest or weed control at 125 g/ha: 125 g ai/ha; for pest or weed control at 500 g/ha: 500 g ai/ha
Summary of the method: as §1

[6] = preemergence, visual rating after approx. 10 d, 0 to 100 scale where 0 is no effect and 100 is complete control, read-out: Plant response rating, Pigweed
[7] = preemergence, 0 to 100 scale, 0 = no effect, 100 = complete control, read-out: Plant response rating, Pigweed
[8] = preemergence, visual rating after approx. 10 d, 0 to 100 scale where 0 is no effect and 100 is complete control, read-out: Plant response rating, Foxtail, Giant
[9] = preemergence, 0 to 100 scale, 0 = no effect, 100 = complete control, read-out: Plant response rating, Foxtail, Giant
[10] = preemergence, visual rating after approx. 10 d, 0 to 100 scale where 0 is no effect and 100 is complete control, read-out: Plant response rating, Barnyardgrass
[11] = preemergence, 0 to 100 scale, 0 = no effect, 100 = complete control, read-out: Plant response rating, Barnyardgrass
[12] = preemergence, visual rating after approx. 10 d, 0 to 100 scale where 0 is no effect and 100 is complete control, read-out: Plant response rating, Ragweed
[13] = preemergence, 0 to 100 scale, 0 = no effect, 100 = complete control, read-out: Plant response rating, Ragweed
[14] = preemergence, visual rating after approx. 10 d, 0 to 100 scale where 0 is no effect and 100 is complete control, read-out: Plant response rating, Ryegrass, Italian
[15] = preemergence, 0 to 100 scale, 0 = no effect, 100 = complete control, read-out: Plant response rating, Ryegrass, Italian
[16] = preemergence, visual injury rating, 0 to 100 scale where 0 is no effect and 100 is complete control, approximately 10 d, read-out: Pigweed plant response rating
[17] = preemergence, 0 to 100 scale where 0 is no effect and 100 is complete control, read-out: Pigweed plant response rating
[18] = preemergence, visual injury rating, 0 to 100 scale where 0 is no effect and 100 is complete control, approximately 10 d, read-out: Foxtail, Giant plant response rating
[19] = preemergence, 0 to 100 scale where 0 is no effect and 100 is complete control, read-out: Foxtail, Giant plant response rating
[20] = preemergence, visual injury rating, 0 to 100 scale where 0 is no effect and 100 is complete control, approximately 10 d, read-out: Barnyardgrass plant response rating
[21] = preemergence, 0 to 100 scale where 0 is no effect and 100 is complete control, read-out: Barnyardgrass plant response rating
[22] = preemergence, visual injury rating, 0 to 100 scale where 0 is no effect and 100 is complete control, approximately 10 d, read-out: Ragweed plant response rating
[23] = preemergence, 0 to 100 scale where 0 is no effect and 100 is complete control, read-out: Ragweed plant response rating
[24] = preemergence, visual injury rating, 0 to 100 scale where 0 is no effect and 100 is complete control, approximately 10 d, read-out: Ryegrass, Italian plant response rating
[25] = preemergence, 0 to 100 scale where 0 is no effect and 100 is complete control, read-out: Ryegrass, Italian plant response rating

Molecule O=C1NC[C@H](c2ccc(C(F)(F)F)cc2)[C@H]1C(=O)Nc1ccccc1C1CC1 [Compound 746] has a pest or weed control at 125 g/ha [1, 6] of 0%, a pest or weed control at 500 g/ha [1, 7] of 20% and a pest or weed control at 125 g/ha [2, 8] of 80%. The pest or weed control at 500 g/ha [2, 9] was 90%, the pest or weed control at 125 g/ha [3, 10] was 0% and the pest or weed control at 500 g/ha [3, 11] was 0%. The pest or weed control at 125 g/ha [4, 12] was 0%, the pest or weed control at 500 g/ha [4, 13] was 0% and the pest or weed control at 125 g/ha [5, 14] was 0%. The pest or weed control at 500 g/ha [5, 15] was 40%.

COc1cc([C@H]2CN(C)C(=O)[C@@H]2C(=O)Nc2ccccc2SC)cc(OC)c1OC [Compound 1218] gave a pest or weed control at 125 g/ha [1, 16] of 0%, a pest or weed control at 500 g/ha [1, 17] of 0% and a pest or weed control at 125 g/ha [2, 18] of 80%. The pest or weed control at 500 g/ha [2, 19] was 90%, the pest or weed control at 125 g/ha [3, 20] was 30% and the pest or weed control at 500 g/ha [3, 21] was 100%. It also gave a pest or weed control at 125 g/ha [4, 22] of 0%, a pest or weed control at 500 g/ha [4, 23] of 0% and a pest or weed control at 125 g/ha [5, 24] of 0%. It also gave a pest or weed control at 500 g/ha [5, 25] of 0%.

In the case of O=C1NC[C@H](c2cccc3c2OC(F)(F)O3)[C@H]1C(=O)Nc1ccccc1F [Compound 754], the pest or weed control at 125 g/ha [1, 6] is reported as 0%, the pest or weed control at 500 g/ha [1, 7] is reported as 0% and the pest or weed control at 125 g/ha [2, 8] is reported as 70%. It also gave a pest or weed control at 500 g/ha [2, 9] of 90%, a pest or weed control at 125 g/ha [3, 10] of 80% and a pest or weed control at 500 g/ha [3, 11] of 100%. For the same molecule, the pest or weed control at 125 g/ha [4, 12] was 0%, the pest or weed control at 500 g/ha [4, 13] was 0% and the pest or weed control at 125 g/ha [5, 14] was 0%. The pest or weed control at 500 g/ha [5, 15] was 0%.

In the case of Cc1ccc([C@H]2CN(C)C(=O)[C@@H]2C(=O)Nc2cccc(F)c2C)cc1C [Compound 732], the pest or weed control at 125 g/ha [1, 6] is reported as 0%, the pest or weed control at 500 g/ha [1, 7] is reported as 20% and the pest or weed control at 125 g/ha [2, 8] is reported as 90%. The pest or weed control at 500 g/ha [2, 9] was 90%, the pest or weed control at 125 g/ha [3, 10] was 90% and the pest or weed control at 500 g/ha [3, 11] was 100%. For the same molecule, the pest or weed control at 125 g/ha [4, 12] was 0%, the pest or weed control at 500 g/ha [4, 13] was 70% and the pest or weed control at 125 g/ha [5, 14] was 80%. The pest or weed control at 500 g/ha [5, 15] was 80%.

For O=C1NC[C@H](c2ccc(OC(F)F)cc2)[C@H]1C(=O)Nc1ccccc1F [Compound 778], the pest or weed control at 125 g/ha [1, 6] was 30%, the pest or weed control at 500 g/ha ([1]; Preemergence, visual injury vs untreated controls after approximately 10 d, read-out: Pigweed plant response rating (0 to 100 scale where 0 is no effect and 100 is complete control)) was 80% and the pest or weed control at 125 g/ha [2, 8] was 90%. For the same molecule, the pest or weed control at 500 g/ha ([2]; Preemergence, visual injury vs untreated controls after approximately 10 d, read-out: Foxtail, Giant plant response rating (0 to 100 scale where 0 is no effect and 100 is complete control)) was 90%, the pest or weed control at 125 g/ha [3, 10] was 70% and the pest or weed control at 500 g/ha ([3]; Preemergence, visual injury vs untreated controls after approximately 10 d, read-out: Barnyardgrass plant response rating (0 to 100 scale where 0 is no effect and 100 is complete control)) was 90%. It also gave a pest or weed control at 125 g/ha [4, 12] of 40%, a pest or weed control at 500 g/ha ([4]; Preemergence, visual injury vs untreated controls after approximately 10 d, read-out: Ragweed plant response rating (0 to 100 scale where 0 is no effect and 100 is complete control)) of 60% and a pest or weed control at 125 g/ha [5, 14] of 0%. The pest or weed control at 500 g/ha ([5]; Preemergence, visual injury vs untreated controls after approximately 10 d, read-out: Ryegrass, Italian plant response rating (0 to 100 scale where 0 is no effect and 100 is complete control)) was 20%.

For CSc1ccccc1NC(=O)[C@H]1C(=O)NC[C@@H]1c1cc(C)cc(F)c1 [Compound 1306], the pest or weed control at 125 g/ha [1, 16] was 0%, the pest or weed control at 500 g/ha [1, 17] was 0% and the pest or weed control at 125 g/ha [2, 18] was 30%. For the same molecule, the pest or weed control at 500 g/ha [2, 19] was 90%, the pest or weed control at 125 g/ha [3, 20] was 60% and the pest or weed control at 500 g/ha [3, 21] was 90%. For the same molecule, the pest or weed control at 125 g/ha [4, 22] was 40%, the pest or weed control at 500 g/ha [4, 23] was 60% and the pest or weed control at 125 g/ha [5, 24] was 0%. For the same molecule, the pest or weed control at 500 g/ha [5, 25] was 0%.

Molecule COc1ccc([C@H]2CN(C)C(=O)[C@@H]2C(=O)Nc2ccccc2SC)c(OC)c1 [Compound 1216] has a pest or weed control at 125 g/ha [1, 16] of 0%, a pest or weed control at 500 g/ha [1, 17] of 0% and a pest or weed control at 125 g/ha [2, 18] of 30%. The pest or weed control at 500 g/ha [2, 19] was 80%, the pest or weed control at 125 g/ha [3, 20] was 0% and the pest or weed control at 500 g/ha [3, 21] was 90%. It also gave a pest or weed control at 125 g/ha [4, 22] of 0%, a pest or weed control at 500 g/ha [4, 23] of 20% and a pest or weed control at 125 g/ha [5, 24] of 0%. For the same molecule, the pest or weed control at 500 g/ha [5, 25] was 0%.

CN1C[C@H](c2ccc(C(F)(F)F)cc2)[C@@H](C(=O)Nc2cccc(C#N)c2F)C1=O [Compound 1381] showed a pest or weed control at 500 g/ha ([1]; preemergence, 0 to 100 scale (0 no effect, 100 complete control), read-out: Plant response rating, Pigweed) of 100%, a pest or weed control at 125 g/ha ([1]; Preemergence, 0 to 100 scale (0 no effect, 100 complete control), read-out: Plant response rating, Pigweed) of 90% and a pest or weed control at 500 g/ha ([2]; preemergence, 0 to 100 scale (0 no effect, 100 complete control), read-out: Plant response rating, Foxtail, Giant) of 100%. It also gave a pest or weed control at 125 g/ha ([2]; Preemergence, 0 to 100 scale (0 no effect, 100 complete control), read-out: Plant response rating, Foxtail, Giant) of 100%, a pest or weed control at 500 g/ha ([3]; preemergence, 0 to 100 scale (0 no effect, 100 complete control), read-out: Plant response rating, Barnyardgrass) of 100% and a pest or weed control at 125 g/ha ([3]; Preemergence, 0 to 100 scale (0 no effect, 100 complete control), read-out: Plant response rating, Barnyardgrass) of 90%. The pest or weed control at 500 g/ha ([4]; preemergence, 0 to 100 scale (0 no effect, 100 complete control), read-out: Plant response rating, Ragweed) was 80%, the pest or weed control at 125 g/ha ([4]; Preemergence, 0 to 100 scale (0 no effect, 100 complete control), read-out: Plant response rating, Ragweed) was 70% and the pest or weed control at 500 g/ha ([5]; preemergence, 0 to 100 scale (0 no effect, 100 complete control), read-out: Plant response rating, Ryegrass, Italian) was 50%. The pest or weed control at 125 g/ha ([5]; Preemergence, 0 to 100 scale (0 no effect, 100 complete control), read-out: Plant response rating, Ryegrass, Italian) was 30%.

Cc1nc([C@H]2CN(C)C(=O)[C@@H]2C(=O)Nc2ccccc2F)cs1 [Compound 1280] showed a pest or weed control at 125 g/ha [1, 16] of 0%, a pest or weed control at 500 g/ha [1, 17] of 30% and a pest or weed control at 125 g/ha [2, 18] of 0%. It also gave a pest or weed control at 500 g/ha [2, 19] of 80%, a pest or weed control at 125 g/ha [3, 20] of 0% and a pest or weed control at 500 g/ha [3, 21] of 50%. For the same molecule, the pest or weed control at 125 g/ha [4, 22] was 0%, the pest or weed control at 500 g/ha [4, 23] was 0% and the pest or weed control at 125 g/ha [5, 24] was 0%. For the same molecule, the pest or weed control at 500 g/ha [5, 25] was 0%.
